The values below come from publication PMC12203613 (Journal of Agricultural and Food Chemistry, 2025).

Holding throughout (assay type): biochemical
In assay [1] the target is T1, AtHPPD (4-hydroxyphenylpyruvate dioxygenase) (Arabidopsis thaliana, UniProt P93836).
T1 sequence (P93836 1-445): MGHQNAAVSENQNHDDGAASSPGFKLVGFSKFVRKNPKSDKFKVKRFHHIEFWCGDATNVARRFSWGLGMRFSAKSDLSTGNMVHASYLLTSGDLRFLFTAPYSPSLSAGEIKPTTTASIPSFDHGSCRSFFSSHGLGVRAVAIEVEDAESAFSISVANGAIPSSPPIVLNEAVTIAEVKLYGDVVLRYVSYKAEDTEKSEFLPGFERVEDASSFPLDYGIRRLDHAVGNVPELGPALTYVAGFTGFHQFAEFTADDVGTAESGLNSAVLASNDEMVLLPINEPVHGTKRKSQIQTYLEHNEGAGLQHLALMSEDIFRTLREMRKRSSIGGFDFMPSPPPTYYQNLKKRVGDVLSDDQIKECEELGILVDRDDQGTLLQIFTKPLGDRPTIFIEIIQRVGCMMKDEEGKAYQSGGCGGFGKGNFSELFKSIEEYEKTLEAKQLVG
Put plainly: X-ray co-crystal structure at […] Å.

The target of assay [2] is T2, OsHPPD (4-hydroxyphenylpyruvate dioxygenase) (Oryza sativa, UniProt Q6H4V1).
T2 sequence (Q6H4V1 2-446): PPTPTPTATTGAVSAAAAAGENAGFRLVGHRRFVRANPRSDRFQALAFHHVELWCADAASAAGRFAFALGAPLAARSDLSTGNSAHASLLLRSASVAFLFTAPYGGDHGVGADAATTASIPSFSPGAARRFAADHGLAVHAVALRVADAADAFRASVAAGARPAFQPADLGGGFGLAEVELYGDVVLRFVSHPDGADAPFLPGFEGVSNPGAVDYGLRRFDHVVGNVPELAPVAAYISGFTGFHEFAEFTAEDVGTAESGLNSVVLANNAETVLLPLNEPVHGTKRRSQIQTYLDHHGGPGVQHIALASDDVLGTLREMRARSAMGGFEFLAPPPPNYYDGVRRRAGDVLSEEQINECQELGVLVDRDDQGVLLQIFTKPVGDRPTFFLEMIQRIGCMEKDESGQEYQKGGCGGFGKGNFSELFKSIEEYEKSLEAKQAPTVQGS
Put plainly: X-ray co-crystal structure at […] Å.

Assay [3] has as its target T2, OsHPPD (4-hydroxyphenylpyruvate dioxygenase). The assay is described as follows: coupled enzyme assay.
The target in assay [4] is T1, AtHPPD (4-hydroxyphenylpyruvate dioxygenase). The assay is described as follows: coupled enzyme assay.

A word on the Ki: it is a measure of affinity in units of concentration, obtained from inhibition or displacement. A higher Ki goes with a looser hold on the target.

In the case of `Cc1nnc(NC(=O)c2ccc(C(F)(F)F)n3c(CS(=O)(=O)C(C)C)nnc23)o1` [iptriazopyrid, 3-[(isopropylsulfonyl)-methyl]-N-(5-methyl-1,3,4-oxadiazol-2-yl)-5-(trifluoromethyl)-[1,2,4]-triazolo[4,3-a]-pyridine-8-carboxamide], the values for the Ki in assay [1] and in assay [2] were 24.3 ± 0.3 nM and 33.3 ± 3.3 nM, respectively.

`CS(=O)(=O)c1ccc(C(=O)C2C(=O)CCCC2=O)c([N+](=O)[O-])c1` [mesotrione]: the Ki in assay [3] was determined as 26.5 ± 10.8 nM; in assay [4], 22.1 ± 4.5 nM.
